Results on 15 compounds are retold here after ChEMBL document CHEMBL1123604 (J Med Chem, 1987).

Test [1] has as its system Canis familiaris. Briefly: Change in mean arterial blood pressure(MAP) in anesthetized dog. In kind it is functional, Canis lupus familiaris, Artery.
Test [2] has as its system Canis familiaris. The experiment in a line: Change in heart rate(HR) in anesthetized dog. In kind it is functional, Canis lupus familiaris.
Test [3] relates to Canis familiaris. The experiment in a line: Myocardial contractility in anesthetized dog by intravenous dose. To be noted: Canis lupus familiaris, Myocardium. In kind it is functional.
Test [4] is described as follows: Inhibition of Guinea Pig cAMP specific phosphodiesterase (PDE III).
Test [5] deals with Canis familiaris. Briefly: Increased myocardial contractility (dP/dt max) in anesthetized dog at 6 mg/kg. The format is functional, Canis lupus familiaris, Myocardium.
In test [6] the test system is Canis familiaris. The experiment in a line: Percent change of heart rate in anesthetized dog at 0.01 mg/kg. In kind it is functional, Canis lupus familiaris.
The test system of test [7] is Canis familiaris. Briefly: Percent change of ventricular pressure in anesthetized dog at 1 mg/kg. In kind it is functional, Canis lupus familiaris, Cardiac ventricle.
Test [8] deals with Canis familiaris. The experiment in a line: Percent change of ventricular pressure in anesthetized dog at 0.31 mg/kg. In kind it is functional, Canis lupus familiaris, Cardiac ventricle.
Test [9] deals with Canis familiaris. Briefly: Percent change of heart rate in anesthetized dog at 1 mg/kg. The format is functional, Canis lupus familiaris.
Test [10] deals with Canis familiaris. Briefly: Percent change of ventricular pressure in anesthetized dog at 0.01 mg/kg. In kind it is functional, Canis lupus familiaris, Cardiac ventricle.
Test [11] deals with Canis familiaris. Briefly: Percent change in blood pressure in anesthetized dog at 0.031 mg/kg. The format is functional, Canis lupus familiaris.
Test [12] deals with Canis familiaris. The experiment in a line: Percent change of heart rate in anesthetized dog at 0.031 mg/kg. The format is functional, Canis lupus familiaris.
Test [13] concerns Canis familiaris. The experiment in a line: Percent change of heart rate in anesthetized dog at 0.1 mg/kg. The format is functional, Canis lupus familiaris.
Test [14] relates to Canis familiaris. Briefly: Percent change in blood pressure in anesthetized dog at 1 mg/kg. In kind it is functional, Canis lupus familiaris.
In test [15] the test system is Canis familiaris. Briefly: Increased contractility (dP/dt max) in Conscious dog at peroral dose of 0.31 mg/kg. In kind it is functional, Canis lupus familiaris. To be noted: route oral.
The subject of test [16] is Canis familiaris. The experiment in a line: Percent change of ventricular pressure in anesthetized dog at 0.1 mg/kg. The format is functional, Canis lupus familiaris, Cardiac ventricle.
Test [17] deals with Canis familiaris. The experiment in a line: Percent change in blood pressure in anesthetized dog at 0.01 mg/kg. The format is functional, Canis lupus familiaris.
Test [18] has as its system Canis familiaris. Briefly: Percent change in blood pressure in anesthetized dog at 0.31 mg/kg. In kind it is functional, Canis lupus familiaris.
In test [19] the test system is Canis familiaris. The experiment in a line: Percent change of ventricular pressure in anesthetized dog at 0.031 mg/kg. The format is functional, Canis lupus familiaris, Cardiac ventricle.
Test [20] concerns Canis familiaris. Briefly: Percent change of heart rate in anesthetized dog at 0.31 mg/kg. The format is functional, Canis lupus familiaris.
Test [21] deals with Canis familiaris. The experiment in a line: Percent change in blood pressure in anesthetized dog at 0.1 mg/kg. In kind it is functional, Canis lupus familiaris.
Test [22] has as its system Canis familiaris. The experiment in a line: Increased myocardial contractility (dP/dt max) in anesthetized dog at 2 mg/kg. The format is functional, Canis lupus familiaris, Myocardium.
The nature of test [23]: Inhibition of Guinea Pig cAMP specific phosphodiesterase (PDE III). This is another data set of the same source.
Test [24] concerns Canis familiaris. The experiment in a line: Percent change in ventricular pressure in anesthetized dog at 0.1 mg/kg. In kind it is functional, Canis lupus familiaris, Cardiac ventricle.
Test [25] has as its system Canis familiaris. The experiment in a line: Increased myocardial contractility (dP/dt max) in conscious dog at 0.31 mg/kg peroral dose, range 10-20. In kind it is functional, Canis lupus familiaris, Myocardium. As to conditions: route oral.
The subject of test [26] is Canis familiaris. The experiment in a line: Increased myocardial contractility (dP/dt max) in anesthetized dog.
Test [27] has as its system Canis familiaris. The experiment in a line: Percent change in heart rate in anesthetized dog at 0.031 mg/kg. In kind it is functional, Canis lupus familiaris.
The subject of test [28] is Canis familiaris. Briefly: Percent change in ventricular pressure in anesthetized dog at 0.031 mg/kg. The format is functional, Canis lupus familiaris, Cardiac ventricle.
Test [29] relates to Canis familiaris. Briefly: Increased myocardial contractility (dP/dt max) in conscious dog at 1 mg/kg peroral dose. In kind it is functional, Canis lupus familiaris, Myocardium. To be noted: route oral.
For test [30], the system named is Canis familiaris. Briefly: Increased myocardial contractility (dP/dt max) in anesthetized dog at 8 mg/kg. In kind it is functional, Canis lupus familiaris, Myocardium.

For `CC1(C)C(=O)NN=C1c1ccc(-n2cnc3c2CCCC3)cc1`, the Change in the test on Canis familiaris [1] is -10%; with Canis familiaris [2] it was 10%. The compound further registered a median effective dose (ED50) in the test with Canis familiaris [3] of 0.2 mg/kg. For the same compound, the IC50 in [4] is 3.2 µM.

Regarding `CC1CC(O)=NN=C1c1ccc(-n2ccnc2)cc1` (stereo not drawn) [CI-930], the Dose with Canis familiaris [5] came out at 0.013 mg/kg.

Turning to `CSc1ccc(C2=NNC(=O)C2(C)C)cc1`, the Change with Canis familiaris [1] is -1%; in the test with Canis familiaris [2], 5%. It took a dose of 0.35 mg/kg to reach the 50% effect level with Canis familiaris [3] (ED50).

For the compound `CC1(C)C(=O)NN=C1c1ccncc1`, the Change was determined as 1% in the test on Canis familiaris [1] and 11% in the test on Canis familiaris [2]. For the same compound, it took a dose of 0.3 mg/kg to reach the 50% effect level in the test on Canis familiaris [3] (ED50).

Turning to `CC1(C)C(=O)NN=C1c1ccc(-n2ccnc2)cc1`, the Change was -14% in the test on Canis familiaris [1]; 0% with Canis familiaris [6]; 100% with Canis familiaris [7]; 4.9% in the test with Canis familiaris [2]; 78% in the test on Canis familiaris [8]; 14% with Canis familiaris [9]. In addition, the Change was 6% with Canis familiaris [10]; -4% in the test on Canis familiaris [11]; 0.2% in the test with Canis familiaris [12]; 0.8% in the test with Canis familiaris [13]; -34% in the test with Canis familiaris [14]; 24% in the test on Canis familiaris [15]. The Change with Canis familiaris [16] is 39%; with Canis familiaris [17], -0.5%; in the test with Canis familiaris [18] it was -20%; in the test with Canis familiaris [19], 10%; with Canis familiaris [20], 9%; in the test on Canis familiaris [21], -11%. Further, the ED50 in the test on Canis familiaris [3] turned out to be 0.18 mg/kg. In [4], this compound had an IC50 of 22 µM. This compound also displayed a Dose with Canis familiaris [5] of 0.18 mg/kg.

`CCC1(CC)C(=O)NN=C1c1ccc(-n2ccnc2)cc1`: the Change in the test on Canis familiaris [1] and in the test on Canis familiaris [2] was 0% in each case. The ED50 in the test with Canis familiaris [3] was more than 1 mg/kg. In addition, the IC50 in test [4] was 120 µM.

In turn, `CC1(C)CC(c2ccc(-n3ccnc3)cc2)=NNC1=O` showed a Dose in the test on Canis familiaris [22] of 0.05 mg/kg.

Consider `CCC1(C)C(=O)NN=C1c1ccc(-n2ccnc2)cc1` (stereo not drawn), for which the values for the Change in the test on Canis familiaris [1] and in the test with Canis familiaris [2] were 6% and 17%, respectively. In the test with Canis familiaris [3], this compound showed an ED50 of 0.37 mg/kg. Besides, the IC50 in test [4] came out at 52 µM.

In the case of `O=C1CC(c2ccc(-n3ccnc3)cc2)=NN1`, the Change in the test with Canis familiaris [1] and in the test with Canis familiaris [2] was 0% throughout. The ED50 with Canis familiaris [3] was more than 1 mg/kg. The compound also showed an IC50 in test [4] of 590 µM.

`CCC1C(=O)NN=C1c1ccc(-n2ccnc2)cc1` (stereo not drawn): the Change in the test on Canis familiaris [1] and with Canis familiaris [2] was 0% throughout. This compound had an ED50 with Canis familiaris [3] of more than 1 mg/kg. The compound further came in with an IC50 in test [4] of 270 µM.

Regarding `CC1C(=O)NN=C1c1ccc(-n2ccnc2)cc1` (stereo not drawn), the Change in the test with Canis familiaris [1] and in the test with Canis familiaris [2] was 0% each time. This compound also had an IC50 in test [23] of 140 µM. Moreover, in the test on Canis familiaris [3], the ED50 is more than 1 mg/kg.

Compound `CC1(C)CC(=O)NN=C1c1ccc(-n2ccnc2)cc1` gave a Dose in the test on Canis familiaris [22] of 0.2 mg/kg.

`O=C1NN=C(c2ccc(-n3ccnc3)cc2)C12CCCC2`: the Change was -0.25% in the test on Canis familiaris [1] and 3.5% in the test with Canis familiaris [2]. Moreover, it took a dose of 1 mg/kg to reach the 50% effect level with Canis familiaris [3] (ED50). This compound returned an IC50 in [4] of 54 µM.

Turning to `CC1CC(c2ccc(-n3ccnc3)cc2)=NNC1=O` (stereo not drawn), the Dose with Canis familiaris [22] amounted to 0.5 mg/kg.

Regarding `O=C1CCC(c2ccc(-n3ccnc3)cc2)=NN1` [IMAZODAN], the Change with Canis familiaris [24] was 74.2%; in the test on Canis familiaris [6] it was 0%; in the test with Canis familiaris [7], 146.7%; with Canis familiaris [8] it was 127.3%; in the test with Canis familiaris [9], 33.8%; in the test with Canis familiaris [10], 10.2%. Moreover, the Change is listed as -4.1% in the test with Canis familiaris [11]; 6.2% in the test on Canis familiaris [13]; -22.4% in the test on Canis familiaris [14]; 5.6% in the test with Canis familiaris [27]; -0.7% with Canis familiaris [17]; 37.2% with Canis familiaris [28]. Besides, the values for the Change in the test with Canis familiaris [18], with Canis familiaris [20] and in the test on Canis familiaris [21] were -13.2%, 19.2% and -5.3%, respectively. Besides, the Increase contractility in the test with Canis familiaris [25] is on record as 10%; in the test on Canis familiaris [29], 40%. Besides, the Dose in the test with Canis familiaris [26] and with Canis familiaris [30] was 0.045 mg/kg throughout.

Broadly, the ED50 is the dose at which the effect has come halfway, by size or by number of responders. Higher therefore signals weaker potency. The term IC50 denotes the concentration that gives 50% inhibition.
